The results in this text go back to patent US12351565B2, “Aromatic compound and preparation method therefor and use thereof” (SHANGHAI JIANHE PHARMACEUTICAL & TECHNOLOGY CO. LTD., priority 2018, dated 2025).

Test [1] relates to C57 mice. Kind of test: Forced swimming experiment, intraperitoneal administration to mice. The note with it: for inhibition in vivo at 10 mg/kg: Mus musculus, ip. The test is classed as in vivo. As to the method: The forced-swimming test is currently the most widely used classic method to evaluate the antidepressant effects of compounds in rodents. […] The time in immobile state of experimental animal is observed and recorded, which can be used to evaluate the effect of antidepressant compounds.
1 h and 24 h after a single intraperitoneal administration of 10 mg/kg, forced swimming tests were respectively carried out to investigate the effects of different compounds on depression-like behaviors of C57 mice.
(§1) Experimental animals were 6-week aged C57 mice, male, and C57 mice were purchased from Shanghai SLAC Laboratory Animal Co., Ltd., with a body weight of 20.45±0.19 g. Before the experiment, they arrived at the Animal Feeding Center of Shanghai Institute of Materia Medica, Chinese Academy of Sciences (Animal Production License: SCXK9[Shanghai]2004-0002, usage license: SYXK[Shanghai]2003-0029), and adapted for 3 days or more in animal facilities. They were bred at 6 animals/cage. The breeding environment was room temperature 23±0.2° C., with 12/12 hours alternation of day and night. Before the behavioral test, the animals should be moved to the behavioral test operation room 2 hours in advance to adapt to the environment and reduce their tension.
Preparation of the test product: each test compound was accurately weighed and dissolved in 0.9% NaCl solution, mixed thoroughly, and prepared as a 1 mg/ml solution, set aside.
(§2) 24 hours before the administration, the mice were placed in a cylindrical tank to adapt to the aquatic environment for 10 min. On the day of the behavioral test, the animals were respectively administered intraperitoneally once at 1 h and 24 h before the behavioral test. The mice were placed individually into a cylindrical glass tank with a height of 30 cm and a diameter of 20 cm. The water depth in the tank was 15 cm, so that the animals could not escape from the glass tank and their feet and tails could not touch the bottom of the tank, the water temperature was 23° C.-25° C. A 6 minute video was taken after the mouse entered into water. Since most animals were very active in the first two minutes, the immobility time in the following 4 minute were calculated (criterion of immobility: the mouse stops struggling in the water, stays still and has small limbs movement to maintain balance or to keep a floating state).
The antidepressant effect of a compound was evaluated by the ability of the compound to reduce the immobility time of the animal in the forced swimming test as compared with the blank group. The shorter the immobility time of the animal to be tested, the higher the inhibition rate and the stronger the antidepressant activity. Inhibition rate1 h(%)=immobility time(blank, 1 h)−immobility time(administration, 1 h)/immobility time(blank, 1 h)×100% Inhibition rate24 h(%)=immobility time(blank, 24 h)−immobility time(administration, 24 h)/immobility time(blank, 24 h)×100%

Test [2] has as its system C57 mice. Kind of test: Forced swimming experiment, oral administration to mice. The test is classed as in vivo. The conditions noted are these: for 1 h inhibition rate / 24 h inhibition rate: inhibition of immobility time, C57 mice; for 1 h inhibition rate: forced swimming 1 h after single oral (intragastric) 20 mg/kg; for 24 h inhibition rate: forced swimming 24 h after single oral (intragastric) 20 mg/kg. As to the method: 1 h and 24 h after a single oral administration of 20 mg/kg, forced swimming experiments were then carried out to investigate the effects of different compounds on depression-like behavior in C57 mice.
as §1, with “male,” for “male, and”
Preparation of the test product: each test compound was accurately weighed and dissolved in 0.9% NaCl solution, mixed thoroughly, and prepared into 1 mg/ml and 2 mg/ml solutions respectively, and set aside.
as §2, with “intragastrically” for “intraperitoneally”
The antidepressant effect of a compound was evaluated by the ability of the compound to reduce the immobility time of the animal in the forced swimming test as compared with the blank group. Inhibition rate1 h(%)=immobility time(blank, 1 h)−immobility time(administration, 1 h)/immobility time(blank, 1 h)×100% Inhibition rate24h(%)=immobility time(blank, 24 h)−immobility time(administration, 24 h)/immobility time(blank, 24 h)×100%

Where [3] appears, read: 1 h, read-out: 1 h inhibition rate.
Setting [4] is: 24 h, read-out: 24 h inhibition rate.

Counter-ions that a name gives are not always drawn. Like-named read-outs stand apart in the source and are kept apart here.

As to `N#Cc1cccc(C2(N)CCCC(O)C2=O)c1` (stereo not shown) [Compound 53, 3-(1-amino-3-hydroxy-2-oxocyclohexane)benzonitrile trifluoroacetate], the inhibition in vivo at 10 mg/kg in the test with C57 mice [1] (setting [3]) was found to be 50.9 ± 2%; with C57 mice [1] (setting [4]) it was 39.6 ± 3.2%.

`Cl.NC1(c2cc(F)ccc2F)CCCC(O)C1=O` (stereo not shown) [Comparative compound 1, reference compound]: the inhibition in vivo at 10 mg/kg stood at 17.4% in the test on C57 mice [1] (setting [3]) and 10.6% in the test with C57 mice [1] (setting [4]). Also, the “1 h inhibition rate” value with C57 mice [1] (inhibition of immobility time, forced swimming 1 h after single intraperitoneal 10 mg/kg, C57 mice) stood at 17.4 ± 0.2%. Besides, the “24 h inhibition rate” value in the test with C57 mice [1] (inhibition of immobility time, forced swimming 24 h after single intraperitoneal 10 mg/kg, C57 mice) was found to be 10.6 ± 1.2%.

Consider `CNC1(c2cccc(OC(F)(F)F)c2)CCCC(O)C1=O` (stereo not shown) [Compound 39, 6-hydroxy-2-methylamino-2-(3-trifluoromethoxyphenyl)cyclohexane-1-one hydrochloride], for which the figures for the inhibition in vivo at 10 mg/kg in the test on C57 mice [1] (setting [3]) and in the test on C57 mice [1] (setting [4]) were 46.6 ± 1% and 49.1 ± 3.7%, respectively.

For the compound `NC1(c2c(F)ccc(F)c2F)CCCC(O)C1=O` (stereo not shown) [Compound 71, 2-amino-6-hydroxy-2-(2,3,6-trifluorophenyl)cyclohexane-1-one hydrochloride], the inhibition in vivo at 10 mg/kg in the test with C57 mice [1] (setting [3]) came to 24.2 ± 4.7%; in the test on C57 mice [1] (setting [4]), 57.4 ± 4.4%.

As for `Cl.NC1(c2cccc(OC(F)(F)F)c2F)CCCC(O)C1=O` (stereo not shown) [Compound 59, 2-amino-2-(2-fluoro-3-(trifluoromethoxy)phenyl)-6-hydroxycyclohexane-1-one hydrochloride], the “1 h inhibition rate” value with C57 mice [2] was determined as 28.6 ± 1.8%. Further, the “24 h inhibition rate” value with C57 mice [2] is recorded as 36.1 ± 1.6%. For the same compound, the inhibition in vivo at 10 mg/kg with C57 mice [1] (setting [3]) was found to be 32 ± 2.2%; in the test with C57 mice [1] (setting [4]) it was 40.3 ± 4.9%.

As to `CNCCC(Oc1ccc(C(F)(F)F)cc1)c1ccccc1` (stereo not shown) [Fluoxetine, fluoxetine, reference compound], the “antidepressant effect in the forced swimming experiment” value is given as “no antidepressant effect was shown” in the test with C57 mice [2] (1 hour and 24 hours, oral administration, in words); “no obvious antidepressant effect” in the test with C57 mice [1] (1 hour and 24 hours, intraperitoneal 10 mg/kg, in words). For the same compound, the “1 h inhibition rate” value in the test with C57 mice [2] was 2.2 ± 1.2%. In the test with C57 mice [2], the “24 h inhibition rate” value is 1.8 ± 1.3%. In addition, the inhibition in vivo at 10 mg/kg with C57 mice [1] (inhibition of immobility time, forced swimming 1 h after single intraperitoneal 10 mg/kg, C57 mice, read-out: 1 h inhibition rate) is -4.6 ± 2.3%; in the test on C57 mice [1] (inhibition of immobility time, forced swimming 24 h after single intraperitoneal 10 mg/kg, C57 mice, read-out: 24 h inhibition rate), 4.6 ± 1.8%.

As to `Cl.N[C@]1(c2cccc(OC(F)(F)F)c2F)CCC[C@H](O)C1=O` [Compound 65, (2S,6S)-2-amino-2-(2-fluoro-3-(trifluoromethoxy)phenyl)-6-hydroxycyclohexane-1-one hydrochloride], in the test on C57 mice [2], the “1 h inhibition rate” value is 23.8 ± 0.6% and the “24 h inhibition rate” value was determined as 32.0 ± 2.9%.
